Data on 69 compounds can be found in paper PMC6543911, “Discovery of Coumarin as Microtubule Affinity-Regulating Kinase 4 Inhibitor That Sensitize Hepatocellular Carcinoma to Paclitaxel” (Frontiers in Chemistry, 2019).

Some results are limits rather than exact numbers.

T1 sequence (Q96L34 59-310 limits assumed): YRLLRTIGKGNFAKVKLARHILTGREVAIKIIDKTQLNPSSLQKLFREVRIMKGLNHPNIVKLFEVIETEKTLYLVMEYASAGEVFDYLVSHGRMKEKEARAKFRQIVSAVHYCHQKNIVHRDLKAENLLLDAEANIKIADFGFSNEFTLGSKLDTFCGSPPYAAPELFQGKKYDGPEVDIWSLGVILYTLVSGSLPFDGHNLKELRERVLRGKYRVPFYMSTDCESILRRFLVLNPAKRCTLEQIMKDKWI

One test relates to HepG2 cells. The test is described as follows: Cell apoptosis assay (Annexin V-FITC/PI flow cytometry) in HepG2 cells. It counts as cell-based. The settings on record: 2.5 μM alone. As for the experimental part: HCC cells (2 × 10^5 cells/well) were plated in a 6-well plate and treated with samples at 37°C for 36 h. After incubation, the cells were harvested and washed with ice-cold PBS. Annexin V-FITC-PI apoptosis detection kit (Abcam, USA) was used for a direct observation of viable, early apoptotic, and late apoptotic cells. Annexin V-FITC and propidium iodide were added according to the manufacturer's instructions, and the samples were incubated in the dark for 15 min. The apoptosis ratio was analyzed using BD FACSCalibur flow cytometry.
Regarding `CC(=O)O[C@H]1C(=O)[C@@]2(C)[C@H]([C@H](OC(=O)c3ccccc3)[C@]3(O)C[C@H](OC(=O)[C@H](O)[C@@H](NC(=O)c4ccccc4)c4ccccc4)C(C)=C1C3(C)C)[C@]1(OC(C)=O)CO[C@@H]1C[C@@H]2O` [paclitaxel], the “apoptosis, single agent” value is reported as “unable to trigger distinct apoptosis”.

Another test concerns the target T1, MARK4 catalytic domain (Homo sapiens, UniProt Q96L34).
T1 construct: The recombinant MARK4 catalytic domain was used as kinase; made in house; host or cells: E. coli BL21 (DE3)
The test is described as follows: Kinase activity assay (ADP-Glo) using MARK4 as enzyme. The settings on record: MARK4 5 nM, 100 μM ATP, 5 μM MAP4, 30 min; duplicate, means ± SEM. Type of test: biochemical. On the procedure: MARK4 catalytic domain sequence was subcloned into pET-28a vector. Protein expression in E. coli. BL21 (DE3) was induced by IPTG overnight at 16°C, and the cells were then pelleted by centrifugation at 4,000 rpm for 15 min and resuspended in 20 mL buffer (20 mM Tris-HCl, 150 mM NaCl, 25 mM imidazole pH 8.0). Proteins were purified by nickel-affinity chromatography followed by thrombin cleavage. The proteins were further purified by size-exclusion chromatography using a Superdex 75 column (GE Healthcare).
The kinase activity of MARK4 was measured via ADP-Glo™ kinase assay kit (Promega, USA) under manufacturer's instruction. The recombinant MARK4 catalytic domain was used as kinase. MARK4 (5 nM) activity was tested in a reaction (10 μL) containing 25 mM Tris (pH 7.6), 10 mM MgCl2, 150 mM NaCl, 1 mM EDTA, 1 mM DTT, 100 μM ATP, 5 μM MAP4 and varied concentrations of samples for 30 min. The reaction progress was monitored on Thermo Scientific Varioskan Flash Multimode Reader. Each data point was collected in duplicate and kinetic parameters were obtained using GraphPad Prism v6.0 software.
In turn, `COc1cccc(-c2cc3cc(Cl)cc(Cl)c3oc2=O)c1` [6,8-dichloro-3-(3-methoxyphenyl)-2H-chromen-2-one] showed an IC50 of 7.8 µM.
Turning to `COc1cccc2ccc(=O)oc12` [Compound 1], the IC50 is over 50 µM.
Consider `O=c1ccc2cc(Cl)ccc2o1` [Compound 2], for which the IC50 was over 50 µM.
With `O=c1ccc2cc(Cl)cc(Cl)c2o1` [Compound 3], the half-inhibitory concentration (IC50) is over 50 µM.
Still for that read-out and setting: the same measure for `O=c1ccc2ccccc2o1` [Compound 4]: 41 ± 5.4 µM; for `COc1ccc2oc(=O)ccc2c1` [Compound 5]: 35 ± 3.73 µM.
`Cc1ccc2oc(=O)ccc2c1` [Compound 6]: the IC50 was over 50 µM.
For the compound `CCOc1cccc2ccc(=O)oc12` [Compound 7], the IC50 is over 50 µM.
The compound `O=c1ccc2cc([N+](=O)[O-])ccc2o1` [Compound 8] returned an IC50 of 37.9 ± 3.45 µM.
On the same count and under the same terms, the result for `CC(C)(C)c1cc(C(C)(C)C)c2oc(=O)ccc2c1` [Compound 9] reads over 50 µM; that for `COc1ccc2ccc(=O)oc2c1` [Compound 10], 25.1 ± 5.81 µM.
Turning to `COc1ccc(-c2cc3cccc(OC)c3oc2=O)cc1OC` [Compound 11], the IC50 turned out to be 29.7 ± 4.21 µM.
Take `COc1ccc(-c2cc3cccc(OC)c3oc2=O)cc1` [Compound 12]: half-maximal inhibition (IC50) was put at 22.8 ± 4.61 µM.
With `COc1cccc(-c2cc3cccc(OC)c3oc2=O)c1` [Compound 13], inhibition was half-maximal at 8.98 ± 2.74 µM (IC50).
As to `COc1cc(-c2cc3cccc(OC)c3oc2=O)cc(OC)c1OC` [Compound 14], the IC50 is 34.5 ± 3.3 µM.
In turn, `COc1cccc2cc(-c3ccccc3)c(=O)oc12` [Compound 15] had an IC50 of 31.5 ± 2.28 µM.
`COc1cccc2cc(-c3ccc(Cl)cc3)c(=O)oc12` [Compound 16] returned an IC50 of over 50 µM.
Compound `COc1cccc2cc(-c3ccc(F)cc3)c(=O)oc12` [Compound 17] had an IC50 of over 50 µM.
`COc1ccc(-c2cc3cc(Cl)ccc3oc2=O)cc1OC` [Compound 18] displayed an IC50 of 31 ± 2.81 µM.
Turning to `COc1ccc(-c2cc3cc(Cl)ccc3oc2=O)cc1` [Compound 19], half-maximal inhibition (IC50) was put at 27 ± 2.38 µM.
Still for that read-out and setting: the same measure for `COc1ccccc1-c1cc2cc(Cl)ccc2oc1=O` [Compound 20]: over 50 µM.
With `COc1cc(-c2cc3cc(Cl)ccc3oc2=O)cc(OC)c1OC` [Compound 21], the IC50 was 25.5 ± 1.01 µM.
With `O=c1oc2ccc(Cl)cc2cc1-c1ccc(Cl)cc1` [Compound 22], inhibition was half-maximal at 28 ± 2.01 µM (IC50).
In turn, `COc1ccc(-c2cc3cc(Cl)cc(Cl)c3oc2=O)cc1OC` [Compound 23] yielded an IC50 of 17.4 ± 2.69 µM.
In turn, `COc1ccc(-c2cc3cc(Cl)cc(Cl)c3oc2=O)cc1` [Compound 24] showed an IC50 of 10 ± 3.65 µM. This IC50 is about 1.7-fold lower than that of the compound before.
In turn, `COc1cccc(-c2cc3cc(Cl)cc(Cl)c3oc2=O)c1` [Compound 25] showed a concentration for half-maximal inhibition (IC50) of 7.76 ± 2.93 µM.
The same measure, in the same setting: the same measure for `COc1ccccc1-c1cc2cc(Cl)cc(Cl)c2oc1=O` [Compound 26]: over 50 µM.
`O=c1oc2c(Cl)cc(Cl)cc2cc1-c1ccccc1` [Compound 27] showed an IC50 of 42.1 ± 3.99 µM.
In the case of `COc1ccc(-c2cc3ccccc3oc2=O)cc1OC` [Compound 28], the IC50 was over 50 µM.
`COc1ccc(-c2cc3ccccc3oc2=O)cc1` [Compound 29] came in with an IC50 of 37.4 ± 2.84 µM.
Same read-out and setting: the same measure for `COc1cccc(-c2cc3ccccc3oc2=O)c1` [Compound 30]: 39.3 ± 3.12 µM; for `O=c1oc2ccccc2cc1-c1ccccc1` [Compound 31]: 35 ± 5.78 µM; for `O=c1oc2ccccc2cc1-c1ccc(F)cc1` [Compound 32]: 37.7 ± 6.07 µM.
In the case of `COc1ccc(-c2cc3cc(Br)cc(OC)c3oc2=O)cc1OC` [Compound 33], half-maximal inhibition (IC50) was put at 46.3 ± 3.04 µM.
Same read-out and setting: the result for `COc1ccc(-c2cc3cc(Br)cc(OC)c3oc2=O)cc1` [Compound 34] reads over 50 µM; that for `COc1cccc(-c2cc3cc(Br)cc(OC)c3oc2=O)c1` [Compound 35], 12.8 ± 1.25 µM.
As for `COc1cc(-c2cc3cc(Br)cc(OC)c3oc2=O)c(OC)c(OC)c1OC` [Compound 36], the IC50 stood at 33.6 ± 2.75 µM. This IC50 lies about 2.6-fold higher than the previous one.
With `COc1cc(-c2cc3cc(Br)cc(OC)c3oc2=O)cc(OC)c1OC` [Compound 37], the IC50 was determined as 37.8 ± 5.43 µM.
Same read-out and setting: the same measure for `COc1cc(Br)cc2cc(-c3ccccc3)c(=O)oc12` [Compound 38]: 40.9 ± 4.04 µM; for `COc1cc(Br)cc2cc(-c3ccc(Cl)cc3)c(=O)oc12` [Compound 39]: 16.9 ± 4.26 µM.
Still for that read-out and setting: the same measure for `COc1cc(Br)cc2cc(-c3ccc(F)cc3)c(=O)oc12` [Compound 40]: 38.8 ± 4.83 µM.
For the compound `COc1cc(Br)cc2cc(-c3cccc(OC(C)=O)c3)c(=O)oc12` [Compound 41], the IC50 was over 50 µM.
On to `COc1cc(Br)cc2cc(-c3ccc(OC(C)=O)cc3)c(=O)oc12` [Compound 42], for which the IC50 was over 50 µM.
The compound `COc1ccc(OC)c(-c2cc3cc(Br)cc(OC)c3oc2=O)c1` [Compound 43] registered an IC50 of over 50 µM.
Compound `COc1cc(Br)cc2cc(-c3cccnc3)c(=O)oc12` [Compound 44] displayed an IC50 of over 50 µM.
The compound `COc1cc(Br)cc2cc(-c3cccc(O)c3)c(=O)oc12` [Compound 45] returned an IC50 of over 50 µM.
`COc1cc(Br)cc2cc(-c3ccc(O)cc3)c(=O)oc12` [Compound 46] had an IC50 of over 50 µM.
Compound `COc1cccc2cc(C(C)=O)c(=O)oc12` [Compound 47] came in with an IC50 of 14.6 ± 2.99 µM.
Compound `COc1cccc2cc(C(=O)c3ccccc3)c(=O)oc12` [Compound 48] had an IC50 of 2.1 ± 0.372 µM.
Same read-out and setting: the same measure for `O=C(c1ccccc1)c1cc2cc(Cl)ccc2oc1=O` [Compound 49]: 4.12 ± 0.605 µM.
Consider `CC(=O)c1cc2ccccc2oc1=O` [Compound 51], for which the IC50 was 25.9 ± 2.73 µM.
`O=C(c1ccccc1)c1cc2ccccc2oc1=O` [Compound 52]: inhibition was half-maximal at 27 ± 3.65 µM (IC50).
On the same count and under the same terms, the same measure for `CC(C)(C)C(=O)c1cc2ccccc2oc1=O` [Compound 53]: 25 ± 2.4 µM; for `O=C(c1ccccc1)c1cc2c(ccc3ccccc32)oc1=O` [Compound 54]: 21.3 ± 2 µM.
`COc1ccc2c(C)cc(=O)oc2c1` [Compound 55]: the IC50 was over 50 µM.
`Cc1cc(=O)oc2cc(O)cc(O)c12` [Compound 56] returned an IC50 of over 50 µM.
`O=c1cc(-c2ccccc2)c2c(O)cc(O)cc2o1` [Compound 57] yielded an IC50 of over 50 µM.
In turn, `COc1cc(OC)c2c(C)cc(=O)oc2c1` [Compound 58] showed an IC50 of over 50 µM.
`Cc1cc(=O)oc2cc(OCc3ccccc3)cc(OCc3ccccc3)c12` [Compound 59] registered an IC50 of over 50 µM.
With `COc1cc(OC)c2c(-c3ccccc3)cc(=O)oc2c1` [Compound 60], the IC50 was over 50 µM.
The compound `O=c1cc(-c2ccccc2)c2c(OCc3ccccc3)cc(OCc3ccccc3)cc2o1` [Compound 61] gave an IC50 of over 50 µM.
Regarding `O=c1cc(O)c2ccccc2o1` [Compound 62], the IC50 is over 50 µM.
Regarding `O=c1cc(OCc2ccccc2)c2ccccc2o1` [Compound 63], the IC50 was over 50 µM.
Regarding `COc1cc(=O)oc2ccccc12` [Compound 64], the IC50 was 40.4 ± 2.87 µM.
`O=c1sc2ccccc2cc1-c1ccccc1` [Compound 65] gave an IC50 of 36.1 ± 1.65 µM.
`COc1ccc(-c2cc3ccccc3sc2=O)cc1` [Compound 66, 3-(4-Methoxyphenyl)-2H-thiochromen-2-one]: the IC50 came out at 35.6 ± 3.9 µM.
In the case of `COc1ccc(-c2cc3ccccc3sc2=O)cc1OC` [Compound 67, 3-(3,4-Dimethoxyphenyl)-2H-thiochromen-2-one], the IC50 was 11.1 ± 0.786 µM.
In the case of `O=c1sc2ccccc2cc1-c1ccc(F)cc1` [Compound 68, 3-(4-Fluorophenyl)-2H-thiochromen-2-one], the IC50 stood at 32.2 ± 2.75 µM.

The next test deals with HepG2 cells. The test is described as follows: Cell viability assay (MTT) in HepG2 cells. It counts as cell-based. The following applies: HepG2 cells transiently transfected with MARK4-knockdown vs control vectors. As for the experimental part: HepG2 and SMMC-7721 cells were cultured in DMEM medium (Gibco) supplemented with 10% FBS (Gibco, USA). For transient transfection, cells were transfected with DNA by Lipofectamine 2000 (Thermo fisher, USA).
HCC cells (100 μL/each well, 20,000 cells/mL) were seeded in a 96-well culture plate and allowed to grow for 24 h in DMEM medium supplemented with 10% FBS and 1% penicillin/streptomycin sulfate. The cells were then treated with drugs or vehicle control and incubated in a 5% CO2 incubator for indicated time. At the end of incubation, 10 μL of MTT stock solution (5 mg/mL) was added into each well. The plate was continued to be incubated at 37°C for 4 h before the medium was removed. Then, DMSO (100 μL) was added into each well, followed by thorough shaking. The absorbance of the formazan product was measured at 570 nm on Thermo Scientific Varioskan Flash Multimode Reader. The IC50 value was obtained by fitting dose-response data to a three parametric non-linear regression model using GraphPad Prism 6.0 software.
For the compound `CC(=O)O[C@H]1C(=O)[C@@]2(C)[C@H]([C@H](OC(=O)c3ccccc3)[C@]3(O)C[C@H](OC(=O)[C@H](O)[C@@H](NC(=O)c4ccccc4)c4ccccc4)C(C)=C1C3(C)C)[C@]1(OC(C)=O)CO[C@@H]1C[C@@H]2O` [paclitaxel], the “sensitivity in MARK4-knockdown cells” value is recorded as “increased sensitivity”.

The test is the same for the next values; noted with them: Homo sapiens; HepG2 cells, MTT.
With `COc1cccc(-c2cc3cc(Cl)cc(Cl)c3oc2=O)c1` [6,8-dichloro-3-(3-methoxyphenyl)-2H-chromen-2-one], the IC50 was 15.9 µM.
